Reference: ChEMBL document CHEMBL1130598, “Pyrroles and other heterocycles as inhibitors of p38 kinase” (Bioorg Med Chem Lett, 1998)

Columns and labels:
[1] = target: Mitogen-activated protein kinase 14 (Rattus norvegicus, UniProt P70618); assay: Inhibitory potency evaluated against rat p38 kinase
Rattus norvegicus [2] = assay: Inhibition of secondary paw swelling in rat adjuvant arthritis model at 80 mg/kg b.i.d.; type: functional; details: intraduodenal
[3] = target: T1, Mitogen-activated protein kinase 8 (Homo sapiens, UniProt P45983); assay: Inhibition of c-Jun N-terminal kinase 1-alpha 1 at 5 uM
Rattus norvegicus [4] = species on record: Rattus norvegicus; assay: Inhibition of secondary paw swelling in rat adjuvant arthritis model; type: functional; details: for ED50: Rattus norvegicus, read-out: ID50 (the source's name)
[5] = target: T2, Mitogen-activated protein kinase 12 (Homo sapiens) (UniProt P53778); assay: Inhibition of Mitogen-activated protein kinase p38 gamma at 25 uM
T2 sequence (whole entry): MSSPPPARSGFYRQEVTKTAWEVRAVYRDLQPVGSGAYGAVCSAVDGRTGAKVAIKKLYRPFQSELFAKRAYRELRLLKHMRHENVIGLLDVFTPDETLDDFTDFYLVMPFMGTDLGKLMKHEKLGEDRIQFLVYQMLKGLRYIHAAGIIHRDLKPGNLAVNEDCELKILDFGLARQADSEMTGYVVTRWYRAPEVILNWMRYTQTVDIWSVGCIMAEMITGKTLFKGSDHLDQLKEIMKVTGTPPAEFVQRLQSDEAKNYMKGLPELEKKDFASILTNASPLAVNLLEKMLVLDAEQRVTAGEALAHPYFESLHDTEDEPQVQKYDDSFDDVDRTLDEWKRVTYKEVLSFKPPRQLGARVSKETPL

[6] = Pharmacokinetic parameter area under curve was determined at 2 mg/kg i.v. dose in rats; type: ADME, organism-based; set-up: dose 2 mg/kg, route intravenous; details: rat, in vivo, iv
[7] = target: T3, RAF proto-oncogene serine/threonine-protein kinase (Homo sapiens, UniProt P04049); assay: Inhibition of RAF kinase
[8] = target: Mitogen-activated protein kinase 11 (Homo sapiens, UniProt Q15759); assay: Inhibition of Mitogen-activated protein kinase p38 beta
[9] = target: T4, Mitogen-activated protein kinase 9 (Homo sapiens, UniProt P45984); assay: Inhibition of c-Jun N-terminal kinase 2-alpha 2
[10] = Pharmacokinetic parameter area under curve was determined at 5 mg/kg i.v. dose in rats; type: ADME, organism-based; set-up: dose 5 mg/kg, route intravenous; details: rat, in vivo, iv
[11] = target: T1, Mitogen-activated protein kinase 8; assay: Inhibition of c-Jun N-terminal kinase 1-alpha 1 at 20 uM
[12] = target: T3, RAF proto-oncogene serine/threonine-protein kinase; assay: Inhibition of RAF kinase at 1 uM
[13] = target: Mitogen-activated protein kinase 14 (Homo sapiens, UniProt Q16539); assay: Inhibition of Mitogen-activated protein kinase p38 alpha
[14] = Pharmacokinetic parameter area under curve was determined at 10 mg/kg po dose in rats; type: ADME, organism-based; set-up: dose 10 mg/kg, route oral; details: rat, in vivo
[15] = target: T4, Mitogen-activated protein kinase 9; assay: Inhibition of c-Jun N-terminal kinase 2-beta 1
[16] = Pharmacokinetic parameter area under curve was determined at 3 mg/kg po dose in rats; type: ADME, organism-based; set-up: dose 3 mg/kg, route oral; details: rat, in vivo
[17] = Pharmacokinetic parameter Vdss was determined at 2 mg/kg i.v. dose in rats; type: ADME, organism-based; set-up: dose 2 mg/kg, route intravenous; details: rat, in vivo, iv, read-out: Vdss
[18] = target: T2, Mitogen-activated protein kinase 12 (Homo sapiens); details: 50 uM
Description: Inhibition of Mitogen-activated protein kinase p38 gamma at 50 uM

[19] = C max was determined at 10 mg/kg po dose in rats; type: ADME, organism-based; set-up: dose 10 mg/kg, route oral; details: rat, in vivo
[20] = T max was determined at 3 mg/kg po dose in rats; type: ADME, organism-based; set-up: dose 3 mg/kg, route oral; details: rat, in vivo
[21] = target: T1, Mitogen-activated protein kinase 8; assay: Inhibition of c-Jun N-terminal kinase 1-alpha 1
[22] = Pharmacokinetic parameter half-life was determined at 2 mg/kg i.v. dose in rats; type: ADME, organism-based; set-up: dose 2 mg/kg, route intravenous; details: rat, in vivo, iv
[23] = T max was determined at 10 mg/kg po dose in rats; type: ADME, organism-based; set-up: dose 10 mg/kg, route oral; details: rat, in vivo
[24] = C max was determined at 3 mg/kg po dose in rats; type: ADME, organism-based; set-up: dose 3 mg/kg, route oral; details: rat, in vivo
Rattus norvegicus [25] = assay: Pharmacokinetic parameter plasma clearance was determined at 2 mg/kg i.v. dose in rats; type: ADME, organism-based; set-up: dose 2 mg/kg, route intravenous; details: in vivo, iv
Rattus norvegicus [26] = assay: Pharmacokinetic parameter plasma clearance was determined at 5 mg/kg i.v. dose in rats; type: ADME, organism-based; set-up: dose 5 mg/kg, route intravenous; details: in vivo, iv
[27] = Pharmacokinetic parameter half-life was determined at 5 mg/kg i.v. dose in rats; type: ADME, organism-based; set-up: dose 5 mg/kg, route intravenous; details: rat, in vivo, iv
[28] = Pharmacokinetic parameter half-life was determined at 3 mg/kg po dose in rats; type: ADME, organism-based; set-up: dose 3 mg/kg, route oral; details: rat, in vivo
[29] = Bioavailability was determined at 3 mg/kg po dose in rats; type: ADME, organism-based; details: rat, in vivo
[30] = Pharmacokinetic parameter half-life was determined at 10 mg/kg po dose in rats; type: ADME, organism-based; set-up: dose 10 mg/kg, route oral; details: rat, in vivo
Rattus norvegicus [31] = assay: Inhibition of secondary paw swelling in rat adjuvant arthritis model at 20 mg/kg/ b.i.d.; type: functional; details: intraduodenal
[32] = Pharmacokinetic parameter Vdss was determined at 5 mg/kg i.v. dose in rats; type: ADME, organism-based; set-up: dose 5 mg/kg, route intravenous; details: rat, in vivo, iv, read-out: Vdss

T1 sequence (P45983 whole entry): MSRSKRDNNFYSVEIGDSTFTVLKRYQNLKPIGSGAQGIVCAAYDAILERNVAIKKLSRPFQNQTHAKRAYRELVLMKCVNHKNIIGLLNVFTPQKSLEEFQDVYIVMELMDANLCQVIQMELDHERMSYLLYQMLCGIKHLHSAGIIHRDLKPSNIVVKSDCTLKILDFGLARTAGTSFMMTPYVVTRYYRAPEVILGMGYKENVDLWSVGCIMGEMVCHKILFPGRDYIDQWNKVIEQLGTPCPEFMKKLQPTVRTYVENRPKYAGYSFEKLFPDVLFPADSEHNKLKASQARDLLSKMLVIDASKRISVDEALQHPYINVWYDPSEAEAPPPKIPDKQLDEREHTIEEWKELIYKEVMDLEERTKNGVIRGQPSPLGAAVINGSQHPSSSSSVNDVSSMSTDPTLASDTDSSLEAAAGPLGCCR
T3 sequence (P04049 whole entry): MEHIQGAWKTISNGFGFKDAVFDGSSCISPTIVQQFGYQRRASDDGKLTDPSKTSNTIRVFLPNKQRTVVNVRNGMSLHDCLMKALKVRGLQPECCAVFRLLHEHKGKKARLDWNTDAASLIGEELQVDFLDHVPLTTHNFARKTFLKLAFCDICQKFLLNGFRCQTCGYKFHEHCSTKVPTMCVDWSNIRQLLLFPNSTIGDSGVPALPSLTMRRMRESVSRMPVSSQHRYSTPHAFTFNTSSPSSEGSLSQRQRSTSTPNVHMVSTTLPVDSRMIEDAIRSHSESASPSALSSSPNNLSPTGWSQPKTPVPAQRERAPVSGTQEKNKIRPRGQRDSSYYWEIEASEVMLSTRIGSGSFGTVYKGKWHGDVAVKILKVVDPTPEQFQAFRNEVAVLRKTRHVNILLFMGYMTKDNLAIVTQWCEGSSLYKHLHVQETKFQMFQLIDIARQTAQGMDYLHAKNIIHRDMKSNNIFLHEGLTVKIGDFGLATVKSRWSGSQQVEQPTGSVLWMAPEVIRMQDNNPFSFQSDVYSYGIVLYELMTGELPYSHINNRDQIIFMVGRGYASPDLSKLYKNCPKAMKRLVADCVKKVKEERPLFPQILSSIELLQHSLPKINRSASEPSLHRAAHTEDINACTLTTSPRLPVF
T4 sequence (P45984 whole entry): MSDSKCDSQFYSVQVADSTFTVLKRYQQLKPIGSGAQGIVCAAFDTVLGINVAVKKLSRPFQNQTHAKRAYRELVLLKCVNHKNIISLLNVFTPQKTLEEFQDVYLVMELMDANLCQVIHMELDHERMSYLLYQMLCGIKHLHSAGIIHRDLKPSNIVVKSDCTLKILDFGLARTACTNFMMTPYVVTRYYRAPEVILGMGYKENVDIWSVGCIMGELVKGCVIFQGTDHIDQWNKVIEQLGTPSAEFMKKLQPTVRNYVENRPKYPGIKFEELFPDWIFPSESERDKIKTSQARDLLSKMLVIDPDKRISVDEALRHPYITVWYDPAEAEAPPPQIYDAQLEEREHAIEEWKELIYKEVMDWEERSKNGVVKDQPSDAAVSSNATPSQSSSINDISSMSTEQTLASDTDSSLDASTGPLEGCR
Sequence of Mitogen-activated protein kinase 14 (Rattus norvegicus, UniProt P70618) (P70618 whole entry): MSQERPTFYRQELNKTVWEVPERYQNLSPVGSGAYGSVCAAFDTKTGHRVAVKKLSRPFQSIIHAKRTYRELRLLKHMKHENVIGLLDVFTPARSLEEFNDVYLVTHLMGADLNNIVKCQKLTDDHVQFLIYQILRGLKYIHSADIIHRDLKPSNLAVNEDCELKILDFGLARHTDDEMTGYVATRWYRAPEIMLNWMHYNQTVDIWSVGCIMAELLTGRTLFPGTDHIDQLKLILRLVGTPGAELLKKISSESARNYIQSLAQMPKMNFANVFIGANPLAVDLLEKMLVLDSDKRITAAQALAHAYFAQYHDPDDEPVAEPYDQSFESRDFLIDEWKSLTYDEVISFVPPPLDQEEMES
Sequence of Mitogen-activated protein kinase 11 (Q15759 whole entry): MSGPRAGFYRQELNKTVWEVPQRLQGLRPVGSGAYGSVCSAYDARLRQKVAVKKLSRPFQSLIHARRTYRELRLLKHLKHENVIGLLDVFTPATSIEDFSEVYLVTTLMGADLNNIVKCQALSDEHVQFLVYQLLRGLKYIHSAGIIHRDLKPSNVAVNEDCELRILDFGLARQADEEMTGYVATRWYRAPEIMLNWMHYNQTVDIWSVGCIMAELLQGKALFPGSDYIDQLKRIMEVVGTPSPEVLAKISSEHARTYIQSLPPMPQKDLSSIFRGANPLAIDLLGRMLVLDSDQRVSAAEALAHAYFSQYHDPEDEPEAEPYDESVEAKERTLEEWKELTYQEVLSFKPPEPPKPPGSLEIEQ
Sequence of Mitogen-activated protein kinase 14 (Homo sapiens, UniProt Q16539) (Q16539 whole entry): as the sequence (P70618 whole entry) above, with V17I, H48L, A263T, E321D, F332L counted along it

Work on `c1ccc(-c2cc(-c3ccncc3)c(-c3ccoc3)[nH]2)cc1` yielded an IC50 [1] of 660 nM.

`Fc1ccc(-c2[nH]c(-c3ccc(Cl)cc3)cc2-c2ccccn2)cc1` gave an IC50 [1] greater than 10000 nM.

In the case of `Fc1ccc(-c2[nH]c(-c3ccccc3)cc2-c2ccncc2)cc1F`, the IC50 [1] is reported as 4.4 nM.

With `CSc1ccc(-c2cc(-c3ccncc3)c(-c3ccc(F)cc3)[nH]2)cc1` the IC50 [1] was 44 nM.

In the case of `Fc1ccc(-c2[nH]c(-c3ccc(Cl)cc3)cc2-c2ccncc2)cc1`, the IC50 [1] is reported as 200 nM.

`Fc1ccc(-c2[nH]c(-c3ccccc3)cc2-c2ccncc2)c(F)c1` showed an IC50 [1] of 29 nM.

`Clc1ccc(-c2[nH]c(-c3ccccc3)cc2-c2ccncc2)cc1` showed an IC50 [1] of 18 nM.

In the case of `FC(F)(F)c1ccc(-c2[nH]c(-c3ccccc3)cc2-c2ccncc2)cc1`, the IC50 [1] is reported as 910 nM.

With `Fc1ccccc1-c1cc(-c2ccncc2)c(-c2ccccc2)[nH]1` the IC50 [1] was 34 nM.

`Clc1ccccc1-c1[nH]c(-c2ccccc2)cc1-c1ccncc1` showed an IC50 [1] of 500 nM.

`c1ccc(-c2cc(-c3ccncc3)c(-c3cccnc3)[nH]2)cc1` showed an IC50 [1] of 240 nM.

Compound `Fc1ccc(-c2[nH]c(-c3ccccc3)cc2-c2ccncc2)cc1` has an IC50 [1] of 12 nM.

Compound `Fc1ccc(-c2cc(-c3ccc(Cl)cc3)oc2-c2ccncc2)cc1` has an IC50 [1] of 530 nM.

Compound `COc1ccc(-c2cc(-c3ccncc3)c(-c3ccccc3)[nH]2)cc1` has an IC50 [1] of 280 nM.

Work on `Clc1cccc(-c2[nH]c(-c3ccccc3)cc2-c2ccncc2)c1` yielded an IC50 [1] of 29 nM.

Work on `CSc1ccc(-c2[nH]c(-c3ccccc3)cc2-c2ccncc2)cc1` yielded an IC50 [1] of 690 nM.

Compound `Fc1ccc(-c2cc(-c3ccncc3)c(-c3ccccc3)[nH]2)cc1` has an IC50 [1] of 17 nM.

In the case of `Fc1ccc(-c2oc(-c3ccc(Cl)cc3)cc2-c2ccncc2)cc1`, the IC50 [1] is reported as 630 nM.

`N#Cc1ccc(-c2[nH]c(-c3ccccc3)cc2-c2ccncc2)cc1` showed an IC50 [1] of 450 nM.

With `CC(C)(C)Oc1ccc(-c2[nH]c(-c3ccccc3)cc2-c2ccncc2)cc1` the IC50 [1] was greater than 1000 nM.

`C[S+]([O-])c1ccc(-c2nc(-c3ccc(F)cc3)c(-c3ccncc3)[nH]2)cc1` (centres undefined) [SB-203580] gave an inhibition in vivo at 80 mg/kg (Rattus norvegicus [2]) of 74%, an inhibition [3] of 50% and an ED50 (Rattus norvegicus [4]) of 80 mg/kg/day.

With `c1ccc(-c2cc(-c3ccncc3)c(-c3ccccn3)[nH]2)cc1` the IC50 [1] was 2300 nM.

Compound `CS(=O)(=O)c1ccc(-c2cc(-c3ccncc3)c(-c3ccc(F)cc3)[nH]2)cc1` has an inhibition [5] of 37%, an AUC [6] of 6.18 µM·h and an IC50 [7] of 500 nM. It also gave an IC50 [8] of 10 nM, an IC50 [9] of 6850 nM and an AUC [10] of 32.6 µM·h. For the same compound, the inhibition [11] was 50%, the inhibition [12] was 50% and the IC50 [13] was 9 nM. For the same compound, the AUC [14] was 95.7 µM·h, the IC50 [15] was 1080 nM and the AUC [16] was 5.8 µM·h. It also gave an ED50 (Rattus norvegicus [4]) of 7.4 mg/kg/day and an IC50 [1] of 9.8 nM.

Work on `Fc1ccc(-c2cc(-c3ccc(Cl)cc3)[nH]c2-c2ccncc2)cc1` yielded an IC50 [1] of 1400 nM.

In the case of `CCOC(=O)c1ccc(-c2[nH]c(-c3ccccc3)cc2-c2ccncc2)cc1`, the IC50 [1] is reported as greater than 10000 nM.

For `C[S+]([O-])c1ccc(-c2cc(-c3ccncc3)c(-c3ccc(F)cc3)[nH]2)cc1` (centres undefined), the Vd [17] was 2.23 L/kg, the inhibition [18] was 42% and the Cmax [19] was 5.71 µM. The Tmax [20] was 1 h, the IC50 [21] was 16000 nM and the AUC [6] was 2.1 µM·h. For the same compound, the IC50 [7] was 470 nM, the IC50 [8] was 8.1 nM and the half-life [22] was 0.652 h. For the same compound, the Tmax [23] was 1.05 h, the IC50 [9] was 7610 nM and the AUC [10] was 10 µM·h. The Cmax [24] was 0.31 µM, the IC50 [13] was 5 nM and the AUC [14] was 16.7 µM·h. The Clp (Rattus norvegicus [25]) was 42.6 mL/min/kg, the Clp (Rattus norvegicus [26]) was 22.5 mL/min/kg and the half-life [27] was 1.06 h. It also gave an IC50 [15] of 1500 nM, an AUC [16] of 0.81 µM·h and a half-life [28] of 2.04 h. The bioavailability [29] was 25.6%, the ID50 (Rattus norvegicus [4]) was 7.4 mg kg-1 b.i.d and the IC50 [1] was 5.1 nM. For the same compound, the half-life [30] was 2.59 h, the inhibition in vivo at 20 mg/kg (Rattus norvegicus [31]) was 90% and the Vd [32] was 1.81 L/kg.

Work on `C[S+]([O-])c1ccc(-n2nc(-c3ccncc3)c(-c3ccc(F)cc3)c2O)cc1` (centres undefined) yielded an IC50 [1] of 83 nM.

With `Cc1cnccc1-c1cc(-c2ccc([S+](C)[O-])cc2)[nH]c1-c1ccc(F)cc1` (centres undefined) the IC50 [1] was 260 nM.
